In test [1] the target is Protein kinase C alpha type (Homo sapiens, UniProt P17252). The format is cell-based. As to conditions: sf9.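 Also: inhibition of PKCalpha kinase activity measured in an enzyme assay with histone as the phosphorylation substrate.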
For test [2], the target named is T1, Muscarinic acetylcholine receptor M5 (Homo sapiens, UniProt P08912).
T1 sequence (P08912 whole entry): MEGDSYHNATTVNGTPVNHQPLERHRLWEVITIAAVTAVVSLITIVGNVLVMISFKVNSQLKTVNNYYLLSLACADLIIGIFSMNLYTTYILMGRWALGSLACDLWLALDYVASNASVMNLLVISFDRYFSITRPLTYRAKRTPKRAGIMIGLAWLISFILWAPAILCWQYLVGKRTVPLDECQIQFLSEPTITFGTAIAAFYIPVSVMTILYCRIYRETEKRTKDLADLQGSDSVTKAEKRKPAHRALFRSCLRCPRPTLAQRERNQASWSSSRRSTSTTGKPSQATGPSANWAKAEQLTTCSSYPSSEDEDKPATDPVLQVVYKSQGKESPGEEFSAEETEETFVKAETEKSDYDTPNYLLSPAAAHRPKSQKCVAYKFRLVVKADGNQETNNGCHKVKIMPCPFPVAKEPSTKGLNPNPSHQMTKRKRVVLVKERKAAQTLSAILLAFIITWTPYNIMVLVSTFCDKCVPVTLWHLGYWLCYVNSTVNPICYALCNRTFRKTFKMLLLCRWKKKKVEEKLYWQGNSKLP
The class given is cell membranes, CHO-K1, Membrane. The note with it: cho-k1.

The target of test [3] is Delta-type opioid receptor (Homo sapiens, UniProt P41143). The class given is cell membranes, HEK293, Membrane. The note with it: hek293.
The target of test [4] is Mitogen-activated protein kinase 14 (Homo sapiens, UniProt Q16539). More on the design: species or system Escherichia coli.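 Also: inhibition of p38alpha enzyme activity in a biochemical kinase assay, with myelin basic protein serving as substrate.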
The target of a further test is Estrogen receptor beta (Homo sapiens, UniProt Q92731). As to conditions: sf9.
The next test addresses T2, Cathepsin G (Homo sapiens, UniProt P08311).
T2 sequence (P08311 whole entry): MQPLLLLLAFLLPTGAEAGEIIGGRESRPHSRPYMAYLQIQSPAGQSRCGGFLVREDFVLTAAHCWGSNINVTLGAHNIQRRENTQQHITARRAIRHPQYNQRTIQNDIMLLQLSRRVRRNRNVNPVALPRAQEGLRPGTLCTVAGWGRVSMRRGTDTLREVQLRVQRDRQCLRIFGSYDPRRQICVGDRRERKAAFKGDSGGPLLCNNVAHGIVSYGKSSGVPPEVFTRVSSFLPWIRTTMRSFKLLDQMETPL
The format is tissue-based. As to conditions: neutrophil.

Test [5] addresses T3, 3-hydroxy-3-methylglutaryl-coenzyme A reductase (Homo sapiens, UniProt P04035).
T3 sequence (P04035 whole entry): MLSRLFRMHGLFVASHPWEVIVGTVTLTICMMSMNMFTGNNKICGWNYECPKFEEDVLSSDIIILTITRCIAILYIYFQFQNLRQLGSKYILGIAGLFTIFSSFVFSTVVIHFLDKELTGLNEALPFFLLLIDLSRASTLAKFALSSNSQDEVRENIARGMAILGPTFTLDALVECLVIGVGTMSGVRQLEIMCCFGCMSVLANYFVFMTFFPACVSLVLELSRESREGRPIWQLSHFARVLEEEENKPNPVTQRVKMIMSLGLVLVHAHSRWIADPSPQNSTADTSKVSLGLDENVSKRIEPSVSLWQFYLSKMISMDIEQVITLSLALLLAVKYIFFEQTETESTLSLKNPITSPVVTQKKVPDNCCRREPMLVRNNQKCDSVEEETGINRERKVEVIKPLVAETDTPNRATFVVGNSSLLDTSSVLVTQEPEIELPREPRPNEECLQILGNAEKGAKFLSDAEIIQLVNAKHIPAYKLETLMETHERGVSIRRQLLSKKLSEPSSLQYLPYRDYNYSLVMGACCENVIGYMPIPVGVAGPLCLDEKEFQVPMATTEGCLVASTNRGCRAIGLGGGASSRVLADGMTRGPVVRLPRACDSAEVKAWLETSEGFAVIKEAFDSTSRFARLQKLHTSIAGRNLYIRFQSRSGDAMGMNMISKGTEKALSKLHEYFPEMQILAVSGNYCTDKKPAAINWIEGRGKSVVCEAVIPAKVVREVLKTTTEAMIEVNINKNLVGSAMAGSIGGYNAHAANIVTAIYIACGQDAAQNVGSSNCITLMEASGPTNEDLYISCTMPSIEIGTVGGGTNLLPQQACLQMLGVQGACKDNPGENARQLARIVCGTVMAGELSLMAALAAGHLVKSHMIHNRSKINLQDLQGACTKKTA
Further details: species or system Escherichia coli.
Also: in other assays of this panel Not Active means under 50% inhibition at 10 µM.

Chain of Delta-type opioid receptor (P41143 whole entry): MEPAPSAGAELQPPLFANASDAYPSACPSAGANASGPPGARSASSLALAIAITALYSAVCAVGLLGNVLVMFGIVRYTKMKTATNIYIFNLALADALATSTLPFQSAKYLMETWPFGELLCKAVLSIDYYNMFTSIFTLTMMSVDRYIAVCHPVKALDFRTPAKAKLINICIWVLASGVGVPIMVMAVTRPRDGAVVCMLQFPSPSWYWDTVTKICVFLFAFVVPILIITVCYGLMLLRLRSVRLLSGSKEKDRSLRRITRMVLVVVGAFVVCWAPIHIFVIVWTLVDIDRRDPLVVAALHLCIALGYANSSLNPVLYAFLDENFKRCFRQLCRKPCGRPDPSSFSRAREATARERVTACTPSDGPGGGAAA
Chain of Estrogen receptor beta (Q92731 whole entry): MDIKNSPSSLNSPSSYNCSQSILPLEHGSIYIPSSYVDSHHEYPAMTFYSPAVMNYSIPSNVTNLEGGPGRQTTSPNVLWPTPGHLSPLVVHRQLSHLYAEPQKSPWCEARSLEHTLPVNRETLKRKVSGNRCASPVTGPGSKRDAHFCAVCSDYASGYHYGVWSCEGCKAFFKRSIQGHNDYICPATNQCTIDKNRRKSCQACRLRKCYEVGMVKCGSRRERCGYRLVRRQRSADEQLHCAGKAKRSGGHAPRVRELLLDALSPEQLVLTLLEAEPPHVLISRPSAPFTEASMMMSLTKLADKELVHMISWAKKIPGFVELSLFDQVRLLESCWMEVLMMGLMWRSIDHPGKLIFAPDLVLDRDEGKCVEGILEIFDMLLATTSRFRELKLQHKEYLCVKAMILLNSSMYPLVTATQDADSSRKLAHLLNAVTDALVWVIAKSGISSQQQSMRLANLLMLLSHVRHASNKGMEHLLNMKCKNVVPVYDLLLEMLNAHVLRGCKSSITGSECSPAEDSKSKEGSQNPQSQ
Chain of Mitogen-activated protein kinase 14 (Q16539 whole entry): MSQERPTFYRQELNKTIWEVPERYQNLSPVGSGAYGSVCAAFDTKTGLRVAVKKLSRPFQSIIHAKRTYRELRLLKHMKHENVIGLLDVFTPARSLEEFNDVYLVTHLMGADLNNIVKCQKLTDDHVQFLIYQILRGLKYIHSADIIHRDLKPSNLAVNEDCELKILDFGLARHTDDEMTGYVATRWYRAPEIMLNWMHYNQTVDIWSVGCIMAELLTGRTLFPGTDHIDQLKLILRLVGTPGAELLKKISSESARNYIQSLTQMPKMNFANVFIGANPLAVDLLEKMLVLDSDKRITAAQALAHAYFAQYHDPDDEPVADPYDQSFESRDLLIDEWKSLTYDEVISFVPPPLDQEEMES

The IC50 is the concentration needed to halve the response being measured. Take `O=c1[nH]c(=O)n(C2CCCO2)cc1F` (stereo not drawn) [TEGAFUR]: the IC50 result (in test [1]; in test [2]; in test [3]; in test [4]; on Estrogen receptor beta; against Cathepsin G) was “Not Active” each time. Also, in test [5], the IC50 entry was “Not Active”.

`CC(=N)S` [THIOACETAMIDE]: the IC50 result (in test [1]; in test [2]; in test [3]; in test [4]; against Estrogen receptor beta; against Cathepsin G) was “Not Active” in each case. The IC50 result in test [5] was “Not Active”.

Regarding `Cc1ccc(C(=O)c2ccc(CC(=O)O)n2C)cc1` [TOLMETIN], the half-inhibitory concentration (IC50) entry (in test [1]; in test [2]; in test [3]; in test [4]; against Estrogen receptor beta; against Cathepsin G) was “Not Active” throughout. The concentration for half-maximal inhibition (IC50) result in test [5] is reported as “Not Active”.

Consider `CC(=O)OCC(COC(C)=O)OC(C)=O` [TRIACETIN], for which the IC50 result (in test [1]; in test [2]; in test [3]; in test [4]; against Estrogen receptor beta; against Cathepsin G) was “Not Active” in each case. Moreover, the IC50 entry in test [5] is recorded as “Not Active”.

As to `CN1CCN(CCCN2c3ccccc3Sc3ccc(C(F)(F)F)cc32)CC1` [TRIFLUOPERAZINE], the 50% inhibitory concentration (IC50) result (in test [1]; in test [2]; in test [3]; in test [4]; on Estrogen receptor beta; at Cathepsin G) was “Not Active” in each case. Besides, the IC50 entry in test [5] is reported as “Not Active”.

For orientation: Ki means a dissociation constant, usually derived from enzyme kinetics or from competition with a known ligand. Consider TRANSPLATIN, for which the 50% inhibitory concentration (IC50) result was “Not Active” in test [1]; 5.93 µM in test [2] (read-out: IC50); “Not Active” in test [3]; “Not Active” in test [4]; “Not Active” at Estrogen receptor beta; “Not Active” against Cathepsin G. In addition, the concentration for half-maximal inhibition (IC50) entry in test [5] is “Not Active”. Also, the Ki entry in test [1] was “Not Active”; in test [2] (read-out: Ki), 4.26 µM; in test [3], “Not Active”; in test [4] it was “Not Active”; at Estrogen receptor beta, “Not Active”; at Cathepsin G, “Not Active”. For the same compound, in test [5], the Ki result is recorded as “Not Active”.

As to ZIRCONIUM(IV) CHLORIDE, the IC50 result (in test [1]; in test [2]; in test [3]; in test [4]; against Estrogen receptor beta; against Cathepsin G) was “Not Active” throughout. Moreover, in test [5], the 50% inhibitory concentration (IC50) result is “Not Active”. For the same compound, the inhibition constant (Ki) result (in test [1]; in test [2]; in test [3]; in test [4]; at Estrogen receptor beta; on Cathepsin G) was “Not Active” each time. Moreover, the Ki result in test [5] is on record as “Not Active”.

Source of the values: ChEMBL document CHEMBL1909046, “DrugMatrix in vitro pharmacology data”.
